Data on twelve molecules can be found in ChEMBL document CHEMBL1201862, “PubChem BioAssay data set” (2004).

Among the test systems are UACC-62; MDA-N; RXF 393; HOP-92; 786-0; OVCAR-3; T47D; LOX IMVI; SF-268; KM12; HL-60; EKVX; NCI-H460; HOP-62; UACC-257; COLO 205; SF-539; CCRF-CEM; SNB-75.
Common to all, as to assay: inhibition of tumour cell growth, NCI panel, 48 h

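Five compound concentrations were applied to cells in 96-well plates for 48 hours; endpoints were derived by simple linear interpolation of the resulting dose-response curve. GI50 marks 50% less growth.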 Calls of active or inactive are those of the source. Rule as the data show it: active = GI50 up to about 1.1 µM and inactive = higher.

Turning to `Cc1cc(O)c(C(C)C)cc1NC(=O)Nc1cccc2ccccc12`, the GI50 in the assay on UACC-62 is 13 µM (inactive); in the assay on MDA-N, 12.7 µM (inactive); in the assay with RXF 393, 14.2 µM (inactive); in the assay on HOP-92, 17.4 µM (inactive); with 786-0, 15.3 µM (inactive); with OVCAR-3 it was 16 µM (inactive). Besides, the GI50 in the assay with T47D was 13.2 µM (inactive); with LOX IMVI, 19.8 µM (inactive); with SF-268 it was 17.3 µM (inactive); with KM12, 15.7 µM (inactive); in the assay with HL-60, 23.8 µM (inactive); in the assay on EKVX, 14.7 µM (inactive). Moreover, the GI50 in the assay with NCI-H460 was 16.5 µM (inactive); in the assay on HOP-62 it was 16.4 µM (inactive); in the assay on UACC-257, 17.5 µM (inactive).
As for `Nc1ccc2[nH]cc(CCC(=O)O)c2c1`, the GI50 in the assay with UACC-62, with MDA-N, with RXF 393, in the assay with COLO 205, with SF-539 and with 786-0 was > 100 µM (inactive) in each case. Besides, the GI50 in the assay on OVCAR-3 is > 100 µM (inactive); with T47D, > 100 µM (inactive); in the assay on LOX IMVI it was > 100 µM (inactive); in the assay on CCRF-CEM, 9.48 µM (inactive); with SF-268, > 100 µM (inactive); with KM12, > 100 µM (inactive). Besides, the GI50 in the assay on SNB-75 is 46.1 µM (inactive); in the assay on HL-60 it was 27.3 µM (inactive); in the assay on EKVX it was > 100 µM (inactive); in the assay on HOP-62, > 100 µM (inactive); in the assay with UACC-257, > 100 µM (inactive).
Consider `COc1cc(C2SCC(=O)N2c2ccc(-n3c(-c4ccccc4)nc4ccccc4c3=O)cc2)ccc1O` (centres undefined), for which the GI50 was 26.1 µM (inactive) in the assay on UACC-62; > 100 µM (inactive) in the assay on MDA-N; > 100 µM (inactive) with COLO 205; 13.3 µM (inactive) in the assay on HOP-92; > 100 µM (inactive) in the assay on SF-539; > 100 µM (inactive) in the assay on 786-0. The GI50 in the assay with OVCAR-3 was > 100 µM (inactive); in the assay with T47D, 30 µM (inactive); in the assay with LOX IMVI it was 54.6 µM (inactive); in the assay with CCRF-CEM, 27.2 µM (inactive); in the assay on SF-268, 32.4 µM (inactive); in the assay on KM12, 34.4 µM (inactive). For the same molecule, the GI50 with HL-60 is > 100 µM (inactive); in the assay with EKVX, > 100 µM (inactive); in the assay on NCI-H460, 69.5 µM (inactive); in the assay with HOP-62, > 100 µM (inactive); in the assay with UACC-257 it was > 100 µM (inactive).
With `Cc1n2nc(N)sc2n[n+]1CC(=O)c1ccccc1`, the GI50 with UACC-62 was 14 µM (inactive); with MDA-N, > 100 µM (inactive); in the assay on RXF 393 it was > 100 µM (inactive); with COLO 205, > 100 µM (inactive); in the assay on SF-539, > 100 µM (inactive); with 786-0 it was > 100 µM (inactive). The GI50 in the assay with OVCAR-3 was > 100 µM (inactive); with T47D, > 100 µM (inactive); with LOX IMVI it was > 100 µM (inactive); with CCRF-CEM, 70 µM (inactive); in the assay on SF-268, > 100 µM (inactive); with KM12, > 100 µM (inactive). Further, the GI50 with SNB-75, in the assay on EKVX, with NCI-H460, with HOP-62 and in the assay on UACC-257 was > 100 µM (inactive) each time.
Turning to `CC(=O)c1ccc(Nc2nc3ccccc3c3occc23)cc1`, the GI50 was 10.7 µM (inactive) with UACC-62; 6.98 µM (inactive) with MDA-N; 8.99 µM (inactive) with COLO 205; 12.8 µM (inactive) in the assay on HOP-92; 17.1 µM (inactive) in the assay with SF-539; 5.6 µM (inactive) in the assay on 786-0. Further, the GI50 in the assay with OVCAR-3 was 14.9 µM (inactive); in the assay on T47D, 5.94 µM (inactive); in the assay on LOX IMVI, 9.57 µM (inactive); with CCRF-CEM, 10.5 µM (inactive); in the assay with SF-268, 14.1 µM (inactive); with KM12, 7.14 µM (inactive). Moreover, the GI50 in the assay on HL-60 was 0.036 µM (active); with EKVX, 15.9 µM (inactive); with NCI-H460 it was 4.71 µM (inactive); in the assay with HOP-62 it was 12.4 µM (inactive); in the assay on UACC-257 it was 13.2 µM (inactive).
With `COc1cc2c(/C=C3/C(=O)Nc4ccc(Cl)cc43)c(Cl)n(Cc3ccccc3)c2cc1C`, the GI50 with UACC-62 was 3.08 µM (inactive); in the assay on RXF 393, 2.31 µM (inactive); in the assay on COLO 205, 2.41 µM (inactive); with HOP-92, 5.51 µM (inactive); in the assay with SF-539, 2.94 µM (inactive); in the assay with 786-0, 2.59 µM (inactive). The GI50 was 1.98 µM (inactive) in the assay on OVCAR-3; 3.17 µM (inactive) with T47D; 3.57 µM (inactive) in the assay on LOX IMVI; 2.89 µM (inactive) with CCRF-CEM; 6.19 µM (inactive) in the assay on SF-268; 2.33 µM (inactive) with KM12. Further, the GI50 with SNB-75 was 2.04 µM (inactive); in the assay with HL-60 it was 3.93 µM (inactive); in the assay with NCI-H460 it was 3.3 µM (inactive); with HOP-62, 2.11 µM (inactive); in the assay with UACC-257 it was 6.34 µM (inactive).
As for `COC(=O)c1ccc(/C=C2\Oc3ccccc3C2=O)cc1`, the GI50 in the assay on UACC-62, with MDA-N, in the assay on RXF 393, with COLO 205, in the assay with SF-539 and in the assay with 786-0 was > 100 µM (inactive) throughout. Further, the GI50 is > 100 µM (inactive) in the assay with OVCAR-3; > 100 µM (inactive) in the assay on T47D; 58.1 µM (inactive) in the assay with CCRF-CEM; > 100 µM (inactive) in the assay on SF-268; > 100 µM (inactive) in the assay on KM12; > 100 µM (inactive) with SNB-75. Further, the GI50 with HL-60 was 16.4 µM (inactive); in the assay with EKVX, > 100 µM (inactive); with NCI-H460 it was > 100 µM (inactive); in the assay on HOP-62 it was > 100 µM (inactive); in the assay with UACC-257, > 100 µM (inactive).
Turning to `NNC(=S)N1CCN(C(=S)NN)CC1`, the GI50 with UACC-62 is > 100 µM (inactive); with MDA-N it was > 100 µM (inactive); in the assay with COLO 205, 65.8 µM (inactive); with HOP-92, > 100 µM (inactive); with 786-0 it was > 100 µM (inactive); with OVCAR-3 it was > 100 µM (inactive). The GI50 with T47D was > 100 µM (inactive); in the assay with LOX IMVI, 58.1 µM (inactive); in the assay with CCRF-CEM it was > 100 µM (inactive); in the assay with SF-268, > 100 µM (inactive); in the assay on KM12, > 100 µM (inactive); with SNB-75, > 100 µM (inactive). Moreover, the GI50 in the assay with HL-60 is 32.4 µM (inactive); in the assay with EKVX it was > 100 µM (inactive); with NCI-H460 it was > 100 µM (inactive); with HOP-62 it was > 100 µM (inactive); with UACC-257 it was > 100 µM (inactive).
As for `CCC(=N\NC(N)=S)/C(C)=N/O`, the GI50 in the assay with UACC-62, in the assay on MDA-N, in the assay with RXF 393, in the assay on COLO 205, with HOP-92 and with SF-539 was > 100 µM (inactive) each time. For the same molecule, the GI50 in the assay with 786-0, with OVCAR-3, with T47D, in the assay on LOX IMVI, in the assay on SF-268 and with KM12 was > 100 µM (inactive) each time. The GI50 in the assay with EKVX, with NCI-H460, in the assay on HOP-62 and in the assay with UACC-257 was > 100 µM (inactive) throughout.
On to `c1ccc2c(c1)CCN1CCc3ccccc3C1C2` (centres undefined), for which the GI50 with UACC-62 was 29.7 µM (inactive); with MDA-N, 12.4 µM (inactive); in the assay on COLO 205, 38 µM (inactive); with HOP-92, 31 µM (inactive); in the assay with SF-539 it was 20.5 µM (inactive); with 786-0 it was 25.1 µM (inactive). Also, the GI50 in the assay on OVCAR-3 is 99.1 µM (inactive); with T47D, > 100 µM (inactive); in the assay with LOX IMVI it was 35.1 µM (inactive); in the assay with CCRF-CEM, 58.7 µM (inactive); with SF-268 it was 32.2 µM (inactive); in the assay with KM12, 52.1 µM (inactive). For the same molecule, the GI50 with SNB-75 is 36.4 µM (inactive); in the assay on HL-60 it was 76.9 µM (inactive); in the assay on EKVX, 40.4 µM (inactive); in the assay with NCI-H460 it was 44.6 µM (inactive); in the assay on HOP-62, 56.2 µM (inactive); in the assay on UACC-257, 62.4 µM (inactive).
Regarding `CCOC(=O)C1CCC/C1=N\NC(=N)N.Cc1cc(O)c(C(C)C)cc1S(=O)(=O)O` (centres undefined), the GI50 in the assay on UACC-62, with MDA-N, in the assay on RXF 393, in the assay on COLO 205, in the assay with SF-539 and in the assay on 786-0 was > 100 µM (inactive) throughout. Further, the GI50 in the assay with OVCAR-3, in the assay on T47D, with LOX IMVI, in the assay with CCRF-CEM, in the assay on SF-268 and with KM12 was > 100 µM (inactive) each time. Further, the GI50 in the assay on SNB-75 was 36.2 µM (inactive); in the assay with HL-60, > 100 µM (inactive); with EKVX, > 100 µM (inactive); with NCI-H460, > 100 µM (inactive); in the assay with HOP-62, > 100 µM (inactive); in the assay on UACC-257, > 100 µM (inactive).
As to `O=C1/C(=C\c2ccc([N+](=O)[O-])cc2)N(S(=O)(=O)c2ccccc2)c2ncccc21`, the GI50 in the assay with UACC-62 was 9.23 µM (inactive); with MDA-N, 19.5 µM (inactive); with RXF 393 it was 16.6 µM (inactive); in the assay on COLO 205, 19.5 µM (inactive); in the assay on SF-539, 24.8 µM (inactive); in the assay with 786-0 it was 16.5 µM (inactive). The GI50 with OVCAR-3 is 12.2 µM (inactive); in the assay with T47D, 13.4 µM (inactive); with LOX IMVI it was 19.5 µM (inactive); with CCRF-CEM, 2.98 µM (inactive); in the assay with SF-268, 23.1 µM (inactive); with KM12, 20.3 µM (inactive). Moreover, the GI50 in the assay with SNB-75 is 14.5 µM (inactive); with HL-60, 2.18 µM (inactive); in the assay on EKVX, > 10 µM (inactive); with NCI-H460, 18.7 µM (inactive); in the assay on HOP-62, 18.7 µM (inactive); with UACC-257, 21.8 µM (inactive).
